For one data set, the target named is NQO1 (Homo sapiens, UniProt P15559). To be noted: in ~2 min; cited from earlier work.
The subject of another data set is CD8 T cells. Kind of data set: Direct effect on CD8 T cells (apoptosis, proliferation, IFNγ). Format: cell-based, mice. To be noted: tumor lethal dose of β-lap. The method, then: FIGS. 23A-D. IB-DNQ-mediated antitumor effect influences tumor microenvironment. 6×10^5 MC38 cells were subcutaneously transplanted into C57BL/6 mice (n=3/group). Tumor-bearing mice were treated with IB-DNQ (12 mg/kg, i.t.) or vehicle every other day for four times after tumor volumes reached to 50 mm^3. Tumors were collected 24 h later after the last IB-DNQ injection. (FIG. 23A) Flow cytometry analysis of tumor-infiltrating immune cells from vehicle and IB-DNQ treated tumors. (FIG. 23B) Quantification of immune populations from vehicle and IB-DNQ treated tumors. (FIG. 23C) T cell proliferation in the presence/absence of IB-DNQ. CFSE labeled splenocytes were treated with lethal dose IB-DNQ for 4 h followed by washing and stimulation with anti-CD3 (1 μg/ml) and anti-CD28 (2 μg/ml) for 48 h, proliferative CD8 T cells were then analyzed by flow cytometry assay. (FIG. 23D) Effect of IB-DNQ on T cells. […] 24 h later, cell death was analyzed by flow cytometry. […]
I3-Lap-induced-antitumor effect depends on dendritic cell-mediated T cell cross-priming. […] To rule out of direct effect of β-lap on CD8 T cells, the inventors evaluated the expression of NQO1 on CD8 T cells and the effect of β-lap on CD8 T cell survival, proliferation and function. […] IFNγ secretion was measured to evaluate the capability of DCs to prime the antigen specific T cells.

Sequence of NQO1 (P15559 whole entry, species assumed): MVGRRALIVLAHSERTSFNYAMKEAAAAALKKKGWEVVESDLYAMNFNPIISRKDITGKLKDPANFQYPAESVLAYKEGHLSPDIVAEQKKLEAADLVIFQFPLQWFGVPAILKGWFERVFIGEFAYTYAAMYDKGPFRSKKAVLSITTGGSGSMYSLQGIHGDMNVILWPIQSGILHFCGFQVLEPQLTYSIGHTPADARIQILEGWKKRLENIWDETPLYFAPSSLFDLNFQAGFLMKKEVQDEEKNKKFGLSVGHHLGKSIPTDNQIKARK

Regarding `CC1(C)CCC2=C(O1)c1ccccc1C(=O)C2=O` [β-lap, β-lapachone], at NQO1, the “NAD(P)H consumed by one mole of drug” value was around 60 mol and the “superoxide generated by one mole of drug” value was around 120 mol. The “CD8 T cell apoptosis, anti-CD3/CD28 stimulated proliferation and IFNγ production” value with CD8 T cells was “no effect”.

These data come from patent US20220160703A1, “TUMOR-SELECTIVE COMBINATION THERAPY” (The Board of Regents of The University of Texas System, priority 2019, published 2022).
